Measured values published in patent US8445493B2, “Tetrasubstituted pyridazines hedgehog pathway antagonists” (Eli Lilly and Company, priority 2008, dated 2013).
Counter-ions that a name gives are not always drawn.

Tested on: Gli1 transcript in Shh-stimulated Daoy cells
Experiment: Functional assay for measuring the inhibition of Gli1 in Daoy cells (bDNA assay)
Format: cell-based
Conditions: Homo sapiens; Daoy cells stimulated with Shh conditioned media, 24 hours incubation with compound, Gli1 transcript by bDNA luminescence
Description: Biological activity is determined using a functional assay in Daoy neuronal cancer cells and measures levels of Gli1 ribonucleic acid via a bDNA (branched deoxyribonucleic acid) assay system (Panomics, Inc., Fremont, Calif.). Gli was originally discovered in a Glioblastoma cell line and encodes a zinc finger protein that is activated by Shh signaling. The maximum response is obtained by inducing Gli1 transcription in the Daoy cells with conditioned medium (human embryonic kidney, HEK-293 cells stably expressing recombinant Shh) for 24 hours and then measuring the amount of stimulated Gli1 transcript. […]
The bDNA assay system utilizes the technology of branched-chain DNA to allow amplification of a target ribonucleic acid (transcript). […] The addition of a chemilumigenic substrate during the amplification step allows for detection using luminescence. […]
Daoy cells are grown to confluency in tissue culture T225-flasks in Daoy growth media containing Minimum Essential Medium (MEM) plus 10% Fetal Bovine Serum (FBS) with […] non-essential amino acids and 1 mM sodium pyruvate. The cells are removed from the T225-flasks using trypsin ethylenediaminetetraacetic acid (EDTA), centrifuged, resuspended in media, and then counted. […]

Structure (SMILES): Cc1c(-c2ccccc2)nnc(N2CCN(C(=O)NC3CCC(F)(F)CC3)[C@@H](C)C2)c1C [Example 1, (S)—N-(4,4-Difluorocyclohexyl)-4-(4,5-dimethyl-6-phenylpyridazin-3-yl)-2-methylpiperazine-1-carboxamide hydrochloride]
- IC50: ~1.26 nM
